The test has as its target T1, human DGAT1 (Homo sapiens, UniProt O75907).
T1 construct: made in house; host or cells: insect cells (sf9, sf21 or High Five) infected with baculovirus; total cell membranes
T1 sequence (O75907 1-488): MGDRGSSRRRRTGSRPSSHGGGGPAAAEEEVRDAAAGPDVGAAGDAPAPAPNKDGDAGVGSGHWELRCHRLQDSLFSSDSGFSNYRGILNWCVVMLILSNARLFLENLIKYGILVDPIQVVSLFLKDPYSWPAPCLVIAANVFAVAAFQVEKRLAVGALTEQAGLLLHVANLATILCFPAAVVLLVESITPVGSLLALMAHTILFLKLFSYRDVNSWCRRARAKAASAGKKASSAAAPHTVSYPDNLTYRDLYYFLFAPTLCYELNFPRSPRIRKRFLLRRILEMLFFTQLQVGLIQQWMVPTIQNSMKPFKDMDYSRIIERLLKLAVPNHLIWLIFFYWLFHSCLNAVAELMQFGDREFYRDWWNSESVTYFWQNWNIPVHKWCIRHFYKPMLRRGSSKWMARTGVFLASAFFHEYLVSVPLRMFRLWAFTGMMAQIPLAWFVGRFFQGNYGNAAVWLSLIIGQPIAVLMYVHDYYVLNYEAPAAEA
In words: DGAT Scintillation Proximity Assay (SPA) with membranes of insect cells expressing human flagtag DGAT1. It counts as biochemical. As to conditions: read-out: hDGAT1 IC50. On the procedure:
In such an assay human DGAT1 is cloned from a human liver cDNA library. PCR is used to add a restriction site and flag epitope at the most 5′ end and a restriction site at the 3′ end of the sequence. Thereafter, human flagtag (FT) DGAT1 baculovirus may be generated using a Bac-to-Bac Baculovirus Expression System® (Invitrogen). Insect cells (e.g., sf9, sf2 1, or High Five) are infected for 24 to 72 h and collected by centrifugation. Cell pellets are resuspended in homogenization buffer and lysed using a homogenization device, such as a Microfluidizer. Total cell membranes are collected by ultracentrifugation at 45,000 rpm for 1 h.
A small aliquot (0.2 μg/well) of membrane is incubated with 10 μM compound or mercuric chloride (as positive control for inhibition) in the presence of enzyme substrate, dioleoyl glycerol (200 μM) in 384 well plates, final volume 50 gL per well. […] The reaction is stopped by adding Wheat Germ Agglutinin (WGA) SPA beads (0.2 mg) in mercuric chloride. Cell membranes are allowed to couple to the beads overnight. The signal can be measured using, for example, a Chemiluminescence Image Plate Reader (CLIPR) or TopCount device.
On the technique in general: Scintillation proximity formats need no separation of bound from free tracer.
On to `Cc1nc(N)c2c(n1)OC(C)(C)C(c1ccc(C3CCC(C(C)C(=O)O)CC3)cc1)=N2` (single isomer, unassigned) [Example 9], for which the IC50 lay in the range of 10 to 100 nM.

`Nc1ncnc2c1N=C(c1ccccc1Br)CO2` [Example 1-5]: the concentration for half-maximal inhibition (IC50) is greater than 100 nM.

`Nc1ncnc2c1N=C(c1ccc(Br)s1)CO2` [Example 1-24]: the IC50 was greater than 100 nM.

Take `CN(C)C(=O)C=C1CCC(c2ccc(C3=Nc4c(N)ncnc4OC3(C)C)cc2)CC1` (stereo not shown) [Example 2-44]: the half-inhibitory concentration (IC50) fell in the range of 10 to 100 nM.

For `CC1(C)Oc2ncnc(N)c2N=C1c1ccc(C2CCC(=CC(N)=O)CC2)cc1` (stereo not shown) [Example 2-46], the IC50 fell in the range of 10 to 100 nM.

With `CC1(C)Oc2ncnc(N)c2N=C1c1ccc(C2CCC(=CC(=O)NCCO)CC2)cc1` (stereo not shown) [Example 2-48], the half-maximal inhibitory concentration (IC50) lay in the range of 10 to 100 nM.

Consider `Cc1nc(N)c2c(n1)OC(C)(C)C(c1ccc([C@H]3CC[C@H](CNC(=O)COC(=O)CCC(=O)O)CC3)cc1)=N2` [Example 2-49], for which the IC50 fell in the range of 10 to 100 nM.

As for `CN1CCN(C(=O)C=C2CCC(c3ccc(C4=Nc5c(N)ncnc5OC4(C)C)cc3)CC2)CC1` (stereo not shown) [Example 2-50], the IC50 was 10 to 100 nM.

For the molecule `CN(C)CCNC(=O)C=C1CCC(c2ccc(C3=Nc4c(N)ncnc4OC3(C)C)cc2)CC1` (stereo not shown) [Example 2-51], the IC50 lay in the range of 10 to 100 nM.

Take `CC1(C)Oc2ncnc(N)c2N=C1c1ccc([C@H]2CC[C@H](CN)CC2)cc1` [Example 2-63]: the IC50 was 10 to 100 nM.

`CC1(C)Oc2ncnc(N)c2NC1c1ccc([C@H]2CC[C@H](CCO)CC2)cc1` (stereo partly shown) [Example 2-81]: the IC50 is greater than 100 nM.

For the molecule `CC1(C)Oc2ncnc(N)c2N=C1c1ccc(C2CCC(N3CCCC3)CC2)cc1` (stereo not shown) [Example 2-89], the IC50 is greater than 100 nM.

As to `CC1(C)Oc2ncnc(N)c2N=C1c1ccc(C2CCC(N3CCCCC3)CC2)cc1` (stereo not shown) [Example 2-90], the IC50 was greater than 100 nM.

Regarding `CC1(C)Oc2ncnc(N)c2N=C1c1ccc([C@H]2CC[C@H](CNC(=O)CO)CC2)cc1` [Example 2-91], the half-inhibitory concentration (IC50) was 10 to 100 nM.

For the molecule `COc1ccc2[nH]c(C[C@H]3CC[C@H](c4ccc(C5=Nc6c(N)ncnc6OC5(C)C)cc4)CC3)nc2c1` [Example 2-121], the 50% inhibitory concentration (IC50) lay in the range of 10 to 100 nM.

On to `CC(C)(C)OC(=O)NS(=O)(=O)NC[C@H]1CC[C@H](c2ccc(C3=Nc4c(N)ncnc4OC3(C)C)cc2)CC1` [Example 2-125], for which the IC50 was less than 10 nM.

As to `Cc1nc(N)c2c(n1)OC(C)(C)C(c1ccc([C@H]3CC[C@H](CC4=NS(=O)ON4)CC3)cc1)=N2` (stereo partly shown) [Example 2-153], the half-inhibitory concentration (IC50) was less than 10 nM.

Regarding `Cc1nc(N)c2c(n1)OC(C)(C)C(c1ccc([C@H]3CC[C@H](Cc4cc(O)[nH]n4)CC3)cc1)=N2` [Example 2-155], the IC50 lay within 10 to 100 nM.

Take `Cc1nc(N)c2c(n1)OC(C)(C)C(c1ccc([C@H]3CC[C@H](Cn4oc(=O)[nH]c4=O)CC3)cc1)=N2` [Example 2-157]: the IC50 is less than 10 nM.

For the molecule `Cc1nc(N)c2c(n1)OC(C)(C)C(c1ccc([C@H]3CC[C@H](CN4CC(C)(C)C(O)C4=O)CC3)cc1)=N2` (stereo partly shown) [Example 2-167], the IC50 was in the range of 10 to 100 nM.

Consider `Cc1nc(N)c2c(n1)OC(C)(C)C(c1ccc([C@H]3CC[C@H](Cc4nc(=O)on4C)CC3)cc1)=N2` [Example 2-168], for which the IC50 is 10 to 100 nM.

On to `Cc1nc(N)c2c(n1)OC(C)(C)C(c1ccc([C@H]3CC[C@H](CN4CCNC4=O)CC3)cc1)=N2` [Example 2-171], for which the IC50 is greater than 100 nM.

On to `CN1CCN(C(=O)CC[C@H]2CC[C@H](c3ccc(C4=Nc5c(N)ncnc5OC4(C)C)cc3)CC2)CC1` [Example 2-181], for which the IC50 fell in the range of 10 to 100 nM.

For the molecule `CC1(C)Oc2ncnc(N)c2N=C1c1ccc([C@H]2CC[C@H](CO)CC2)cc1` [Example 2-216], the IC50 fell in the range of 10 to 100 nM.

For the molecule `CC1(C)Oc2ncnc(N)c2NC1c1ccc([C@H]2CC[C@H](CO)CC2)cc1` (stereo partly shown) [Example 2-223], the IC50 was greater than 100 nM.

Take `CC1(C)Oc2ncnc(N)c2N=C1c1ccc([C@H]2CC[C@H](CN3CCC(O)CC3)CC2)cc1` [Example 2-225]: the 50% inhibitory concentration (IC50) is greater than 100 nM.

With `CC1(C)Oc2ncnc(N)c2N=C1c1ccc([C@H]2CC[C@H](CN3CCC(O)(c4ccccc4)CC3)CC2)cc1` [Example 2-226], the 50% inhibitory concentration (IC50) is greater than 100 nM.

Turning to `CN1CCN(C[C@H]2CC[C@H](c3ccc(C4=Nc5c(N)ncnc5OC4(C)C)cc3)CC2)CC1` [Example 2-230], the IC50 lay within 10 to 100 nM.

In the case of `CC(C)(C)OC(=O)N1CCN(C[C@H]2CC[C@H](c3ccc(C4=Nc5c(N)ncnc5OC4(C)C)cc3)CC2)CC1` [Example 2-242], the IC50 was greater than 100 nM.

Turning to `CC1(C)Oc2ncnc(N)c2N=C1c1ccc(C2CCNCC2)cc1` [Example 3-2], the IC50 is greater than 100 nM.

Regarding `CC1(C)Oc2ncnc(N)c2N=C1c1ccc(N2CCC(Cc3ccccc3)CC2)cc1` [Example 4-2], the 50% inhibitory concentration (IC50) is greater than 100 nM.

For the molecule `Cc1nc(N)c2c(n1)OC(C)(C)C(c1ccc([C@H]3CC[C@H](CC(=O)O)CC3)cc1)C2` (stereo partly shown) [Example 7-2], the IC50 lay within 10 to 100 nM.

Regarding `Cc1ccc(C2=Cc3c(N)ncnc3OC2(C)C)cc1` [Example 7-3], the concentration for half-maximal inhibition (IC50) was greater than 100 nM.

`CC1(C)Oc2ncnc(N)c2N=C1c1ccc2c(c1)COC21CCC(CC(=O)O)CC1` (stereo not shown) [Example 8-2]: the IC50 was in the range of 10 to 100 nM.

`Cc1nc(N)c2c(n1)OC(C)(C)C(c1ccc3c(c1)CCC31CCC([C@@H](C)C(=O)O)CC1)=N2` (stereo partly shown) [Example 8-4]: the 50% inhibitory concentration (IC50) lay within 10 to 100 nM.

In the case of `Cc1nc(N)c2c(n1)OC(C)(C)C(c1ccc3c(c1)CC[C@]31CC[C@@H](CC(=O)O)CC1)=N2` [Example 8-6], the IC50 was in the range of 10 to 100 nM.

As for `CC1(C)Oc2ncnc(N)c2N=C1c1ccc2c(c1)CCC[C@]21CC[C@@H](CC(=O)O)CC1` [Example 8], the concentration for half-maximal inhibition (IC50) was less than 10 nM.

With `Cc1nc(N)c2c(n1)OC(C)(C)C(c1ccc(C3CCC([C@H](C)C(=O)O)CC3)cc1)=N2` (stereo partly shown) [Example 9-2], the IC50 was 10 to 100 nM.

For `CC1(C)Oc2ncnc(N)c2N=C1c1ccc2c(c1)CC[C@@H]1C/C(=C\C(=O)O)CC[C@H]21` [Example 10-2], the IC50 is 10 to 100 nM.

With `CC1(C)Oc2ncnc(N)c2N=C1c1ccc(C2CCC(C(C)(C)C(=O)O)CC2)cc1` (stereo not shown) [Example 10-3], the IC50 is less than 10 nM.

For `CC1(C)Oc2ncnc(N)c2N=C1c1ccc(C2CCC3(CC2)CC3C(=O)O)cc1` (stereo not shown) [Example 10-4], the IC50 was in the range of 10 to 100 nM.

In the case of `CC1(C)Oc2ncnc(N)c2N=C1c1ccc(C2CCC(C3(C(=O)O)CC3)CC2)cc1` (stereo not shown) [Example 10-5], the concentration for half-maximal inhibition (IC50) was in the range of 10 to 100 nM.

For the molecule `CC1(C)Oc2ncnc(N)c2N=C1c1ccc(C2CCC(C(O)C(=O)O)CC2)cc1` (stereo not shown) [Example 10-6], the half-inhibitory concentration (IC50) was 10 to 100 nM.

On to `CC1(C)Oc2ncnc(N)c2N=C1c1ccc(C2CCC(c3cc(O)[nH]n3)CC2)cc1` (stereo not shown) [Example 10-7], for which the IC50 was 10 to 100 nM.

Consider `CC1(C)Oc2ncnc(N)c2N=C1c1ccc(C2CCC(c3cc(O)no3)CC2)cc1` (stereo not shown) [Example 10-8], for which the IC50 fell in the range of 10 to 100 nM.

For the molecule `CC1(C)Oc2ncnc(N)c2N=C1c1ccc(C2CCC(c3cc(O)on3)CC2)cc1` (stereo not shown) [Example 10-9], the IC50 lay within 10 to 100 nM.

For the molecule `CC1(C)Oc2ncnc(N)c2N=C1c1ccc2c(c1)CCC21CCC(CC(=O)O)CC1` (stereo not shown) [Example 10-10], the IC50 was less than 10 nM.

For the molecule `CC1(C)Oc2ncnc(N)c2N=C1c1ccc2c(c1)C(C)(C)CCC21CCC(CC(=O)O)CC1` (stereo not shown) [Example 10-11], the IC50 is 10 to 100 nM.

On to `CC1(C)Oc2ncnc(N)c2N=C1c1ccc2c(c1)CCCC21CCC(C2(C(=O)O)CC2)CC1` (stereo not shown) [Example 10-12], for which the IC50 was 10 to 100 nM.

Broadly, the IC50 is the concentration needed to halve the response being measured.

The values above are taken from patent US7244727B2, “Fused bicyclic nitrogen-containing heterocycles” (Japan Tobacco Inc., priority 2002, dated 2007).
